Tests used:
[1] = tested on: IL-1β; assay: Inhibition of IL-1β secretion from LPS stimulated peripheral blood mononuclear cells (ELISA); format: cell-based; details: LPS (1 μg/ml) stimulated human PBMC, 18 hours; read-out: The median inhibition concentration (IC50, nM) of IL-1β
Procedure: (§1) To study the effect of the compound of the present invention, in vitro, the inhibition of the IL-1β and TNF-α secretion was measured using the following procedure:
(§2) Cytokine production was measured in the media from lipopolysaccharide (LPS) stimulated peripheral blood mononuclear cells. The mononuclear cells were isolated from human peripheral blood by Lymphoprep® (Nycomed, Norway) fractionation and suspended in RPMI 1640 (growth medium) with foetal calv serum (FCS, 2%), at a concentration of 5×10^5 cells/ml. The cells were incubated in 24-well tissue culture plates in 1 ml aliquots. Test compounds were dissolved in dimethylsulfoxide (DMSO, 10 mM) and were diluted with the medium. Compounds were added to the cells for 30 minutes, then LPS (1 μg/ml final concentration) was added. The plates were incubated for 18 hours, and the concentration of IL-1β and TNF-α in the medium was determined by enzyme-linked immunosorbent assays. The median inhibitory concentrations (IC50) of the compounds were calculated.

[2] = tested on: TNF-α; assay: Inhibition of TNF-α secretion from LPS stimulated peripheral blood mononuclear cells (ELISA); format: cell-based; details: LPS (1 μg/ml) stimulated human PBMC, 18 hours; read-out: The median inhibition concentration (IC50, nM) of TNF-α
Procedure: as §1, §2

[3] = tested on: PMN-superoxide; assay: Inhibition of PMN (polymorphonuclear) superoxide secretion; format: cell-based; details: human PMN granulocytes, TNF-α primed, fMLP 10^-7 M; read-out: The median inhibition concentration (IC50, nM) of PMN-superoxide
Procedure: The compounds of the present invention also show similar activities in the ability to inhibit PMN (polymorphonuclear) superoxide secretion which is also indicative of potentially useful anti-inflammatory drugs. The compounds were tested using the following procedure:
Human polymorphonuclear (PMN) granulocytes were isolated from human blood by dextran sedimentation, Lymphoprep® fractionation and hypotonic lysis of contaminating erythrocytes.
Superoxide anion generation was measured as the superoxide dismutase inhibitable reduction of ferricytochrome C (Madhu, S. B. et al, Inflammation, 16, 241, (1992)).
The cells were suspended in Hanks' balanced salt solution, and incubated for 10 minutes at 37° C. with test compounds. The cells were primed by the addition of TNF-α (3 ng/ml final concentration) for 10 minutes, and then ferricytochrome C, (final concentration 750 μg/ml), bovine serum albumin (BSA, final concentration 1 mg/ml) and formyl-methionyl-leucyl-phenylalanine (fMLP, final concentration 10^-7 M) were added for 3 minutes.
The cells were chilled on ice, and were spun down. The optical densities in the cell-free supernatant was measured in a spectrophotometer.
The median inhibitory concentration (IC50) of the compounds was calculated.

[4] = tested on: TPA induced murine skin inflammation; assay: TPA induced murine chronic skin inflammation model, ear thickness (ET); format: in vivo, mice; details: topical, twice daily on day 8, 9 and 10 and once on day 11
Procedure: (§3) To study the compounds of the present invention in vivo the 12--O--tetradecanoylphorbol-13-acetate (TPA) induced murine chronic skin inflammation model were used (De Young, L. M. et al, Agents Actions, 26, 335-341 (1989); Carlson, R. P. et al, Agents Actions, 17, 197-204 (1985); Alford, J. G. et al, Agents Action, 37, (1992); Stanley, P. L. et al, Skin Pharmacol, 4, 262-271 (1991)). The compounds were tested using the following procedure:
(§4) In groups of 6 female mice weighing 18-25 grams, ear skin inflammation was induced by multiple topical applications of TPA on alternate days during a 10 day period. The resulting inflammation was treated topically with compounds in acetone (20 μl/ear) twice daily on day 8, 9 and 10 and once on day 11. The increased ear thickness (ET, right ear thickness minus left ear thickness) was determined approximately 6 hours after the treatment, the mice were sacrificed and the myeloperoxidase (MPO)-activitywas determined in ear biopsies.

[5] = tested on: myeloperoxidase (MPO); assay: TPA induced murine chronic skin inflammation model, myeloperoxidase (MPO) activity in ear biopsies; format: in vivo, mice; details: topical, twice daily on day 8, 9 and 10 and once on day 11
Procedure: as §3, §4

[6] = Spleen and thymus weight in the TPA induced murine skin inflammation model; format: in vivo, mice; details: 0.1 mg/ear, topical
Procedure: as §3, §4

SMILES | IC50 [1] | IC50 [2] | IC50 [3] | % inhibition of ET ([4]; 0.1 mg/ear) | % inhibition of MPO ([5]; 0.1 mg/ear) | % inhibition of ET ([4]; 0.03 mg/ear) | % inhibition of MPO ([5]; 0.03 mg/ear) | Reduction of spleen and thymus weight [6]
CCOC(=O)Nc1ccccc1Nc1ccc(C(=O)c2ccccc2C)c(Cl)c1 [Example 73, Ethyl N-(2-(4-(2-methylbenzoyl)-3-chlorophenylamino)phenyl)carbamate] | 32 nM | 5 nM | 5 nM |  |  |  |  | 
Cc1ccccc1C(=O)c1ccc(Nc2ccccc2N)cc1Cl [Example 56, 4-(2-Aminophenylamino)-2-chloro-2'-methylbenzophenone] | 13 nM | 7.1 nM | 5 nM |  |  |  |  | 
Nc1ccccc1Nc1ccc(C(=O)c2ccccc2)cc1 [Example 1, 4-(2-Aminophenylamino)benzophenone] | 250 nM | 790 nM | 160 nM | 50% | 65% |  |  | 
Cc1ccc(S(=O)(=O)Nc2ccccc2Nc2ccc(C(=O)c3ccccc3)cc2)cc1 [Example 27, N-(2-(4-Benzoylphenylamino)phenyl)-4-toluenesulfonamide] |  |  |  | 44% | 48% |  |  | 
Nc1ccccc1Nc1ccc(C(=O)c2ccccc2Cl)cc1 [Example 13, 4-(2-Aminophenylamino)-2'-chlorobenzophenone] | 160 nM | 200 nM | 40 nM |  |  |  |  | 
C[C@]12CCC(=O)C=C1CC[C@@H]1[C@@H]2[C@@H](O)C[C@@]2(C)[C@H]1CC[C@]2(O)C(=O)CO [Hydrocortisone, reference compound] |  |  |  | 58% | 69% | 36% | 51% | Reduction of spleen and thymus weight
Nc1ccc(Nc2ccc(C(=O)c3ccccc3)cc2)cc1 [Example 2, 4-(4-Aminophenylamino)benzophenone] |  |  |  | 40% | 76% |  |  | 
CCOC(=O)Nc1ccccc1Nc1ccc(C(=O)c2ccccc2)cc1 [Example 32, Ethyl N-(2-(4-benzoylphenylamino)phenyl)carbamate] | 100 nM | 130 nM | > 10000 nM |  |  |  |  | 
